Source: publication PMC7893915, “Assessing cross-resistance within the pyrethroids in terms of their interactions with key cytochrome P450 enzymes and resistance in vector populations” (Parasites & Vectors, 2021)
Like-named read-outs stand apart in the source and are kept apart here.

Key:
[1] = biological target: T1, CYP6Z2 (Anopheles gambiae, UniProt Q7PNB5); test: Inhibition screening of pyrethroids, diethoxyfluorescein, CYP6Z2; assay type: biochemical
T1 sequence (Q7PNB5 1-492): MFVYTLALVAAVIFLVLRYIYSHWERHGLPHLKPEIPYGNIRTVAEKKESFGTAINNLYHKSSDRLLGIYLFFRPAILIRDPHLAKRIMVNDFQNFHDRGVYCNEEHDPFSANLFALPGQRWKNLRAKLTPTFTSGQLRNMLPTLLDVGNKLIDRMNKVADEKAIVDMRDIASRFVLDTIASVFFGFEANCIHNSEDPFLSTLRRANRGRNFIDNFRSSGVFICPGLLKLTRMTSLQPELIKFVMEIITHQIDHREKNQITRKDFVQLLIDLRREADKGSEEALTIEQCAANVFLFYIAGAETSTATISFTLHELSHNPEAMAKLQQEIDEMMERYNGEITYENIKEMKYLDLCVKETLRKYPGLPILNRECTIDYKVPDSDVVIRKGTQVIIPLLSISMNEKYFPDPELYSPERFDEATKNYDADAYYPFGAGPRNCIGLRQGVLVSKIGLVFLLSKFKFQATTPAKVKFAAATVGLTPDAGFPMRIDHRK
T1 sequence (Q86QH5 1-679 partner): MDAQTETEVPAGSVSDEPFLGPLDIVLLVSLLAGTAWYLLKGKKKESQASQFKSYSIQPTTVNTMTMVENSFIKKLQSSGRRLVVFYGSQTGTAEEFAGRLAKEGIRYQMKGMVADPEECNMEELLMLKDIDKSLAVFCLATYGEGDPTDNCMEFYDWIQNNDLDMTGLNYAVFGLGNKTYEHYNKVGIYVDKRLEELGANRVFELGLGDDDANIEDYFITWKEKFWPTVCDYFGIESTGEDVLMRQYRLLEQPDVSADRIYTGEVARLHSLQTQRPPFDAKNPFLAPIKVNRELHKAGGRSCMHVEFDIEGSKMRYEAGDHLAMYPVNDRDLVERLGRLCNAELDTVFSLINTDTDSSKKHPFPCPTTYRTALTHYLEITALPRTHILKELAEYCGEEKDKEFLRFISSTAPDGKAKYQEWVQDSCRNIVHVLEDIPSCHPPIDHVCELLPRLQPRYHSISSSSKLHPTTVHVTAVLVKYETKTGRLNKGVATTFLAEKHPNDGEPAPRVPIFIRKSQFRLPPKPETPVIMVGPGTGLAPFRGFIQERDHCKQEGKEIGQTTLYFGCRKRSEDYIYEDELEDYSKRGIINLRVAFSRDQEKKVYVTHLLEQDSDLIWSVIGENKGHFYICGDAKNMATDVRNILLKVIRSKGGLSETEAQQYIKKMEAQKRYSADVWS

[2] = tested on: Anopheles sinensis; design: method as in PMID 24159535; conditions: resistance ratios using LC50 values from a susceptible strain; most susceptible to bifenthrin, cyfluthrin and etofenprox, in that order; ref [55]; cited from earlier work
[3] = tested on: CYP6M2; conditions: read-out: IC50 CYP6M2, inhibition of diethoxyfluorescein metabolism, cited from earlier work
[4] = tested on: CYP6P9a; conditions: read-out: IC50 CYP6P9a, inhibition of diethoxyfluorescein metabolism, cited from earlier work
[5] = tested on: CYP9J5; conditions: read-out: IC50 CYP9J5, inhibition of diethoxyfluorescein metabolism, cited from earlier work
[6] = tested on: CYP6P9a; conditions: Incubation time 2h; mean ± SD; ref [38], [41]; cited from earlier work
[7] = tested on: Gambiae Complex; conditions: WHO Bioassay 1998, cited from earlier work
[8] = footnote b, ref Yunta et al. 2019[10]
[9] = ID 100127, F1, house resting indoors, 4/2010, VK6, Burkina Faso, ref Kwiatkowska RM et al. Gene. 2013;519(1):98-106
[10] = ID 100156, F0, larval collection, 5/2009-4/2010, Chano, Ethiopia, ref Massebo F et al. Parasites Vectors. 2013;6
[11] = footnote a, ref Yunta et al. 2016[8]
[12] = ID 100045, F0, larval collection, 7/2010-12/2010, Ahero Division, Kenya, ref Ochomo E et al. Med Vet Entomol. 2013;27(2):156-64
[13] = ID 100117, F1, house resting indoors, 4/2010, VK2, Burkina Faso, ref Kwiatkowska RM et al. Gene. 2013;519(1):98-106
[14] = ID 100160, F0, larval collection, 10/2008-5/2009, Nkolondom, Cameroon, ref Nwane P et al. Parasites Vectors. 2013;6

Compound	IC50 [1]	susceptibility of larvae, rank in words [2]	IC50 [3, 8]	IC50 [4, 8]	IC50 [5, 8]	% Insecticide depletion CYP6P9a [6]	mortality [7, 9]	mortality [7, 10]	IC50 [3, 11]	IC50 [4, 11]	IC50 [5, 11]	mortality [7, 12]	mortality [7, 13]	mortality [7, 14]
Cc1c(COC(=O)[C@@H]2[C@H](/C=C(\Cl)C(F)(F)F)C2(C)C)cccc1-c1ccccc1 (racemic) [Bifenthrin, bifenthrin]	20.7 µM	most susceptible	5.6 µM	8.5 µM	2.5 µM	53.4 ± 1.6%								
CC1(C)[C@H](C(=O)O[C@H](C#N)c2cccc(Oc3ccccc3)c2)[C@@H]1/C=C(\Cl)C(F)(F)F (racemic) [λ-Cyhalothrin, λ-cyhalothrin]	18.6 µM		6.6 µM	3.7 µM	4.2 µM	67.1 ± 3.1%	7.3	56						
CC1(C)[C@H](C(=O)O[C@H](C#N)c2cccc(Oc3ccccc3)c2)[C@@H]1C=C(Br)Br [Deltamethrin, deltamethrin]							18.8	47	4.2 µM	2.6 µM	6.1 µM	92.31	37.2	95
CCOc1ccc(C(C)(C)COCc2cccc(Oc3ccccc3)c2)cc1 [Etofenprox, etofenprox]	2.8 µM	most susceptible	12 µM	8.1 µM	8 µM	98.5 ± 0.2%								
CC1(C)C(C=C(Cl)Cl)C1C(=O)OCc1cccc(Oc2ccccc2)c1 (stereo not drawn) [Permethrin, permethrin]		least susceptible				87.8 ± 0.7%	3		8.1 µM	5.7 µM	6.5 µM	91.97	4.1	95
